Laboratory results from patent publication US6479530B2, “Imidazole derivatives having affinity for α2 receptors” (Orion Corporation, priority 1995, dated 2002).

What was measured:
[1] = system: α2-adrenoceptors; assay: Binding assay, displacement of 1 nM 3H-RX821002 in rat neocortical membranes; details: ratio of affinities on rat neocortical α2- vs α1-adrenoceptors
Protocol: (§1) Affinities for α2-adrenoceptors and α1-adrenoceptors were estimated by determining the displacement of 1 nM ^3H-RX821002 (α2) or 0.1 nM ^3H-prazosin (α1) from α-adrenoceptors in rat neocortical membranes. For this purpose membranes were incubated with different concentrations of test compounds spanning a concentration range of five orders of magnitude. Nonspecific binding was defined with 10 μM phentolamine. Membranes were used at a protein concentration of 2 mg/ml in a total volume of 250 μl. The incubation buffer consisted of 50 mM TRIS-HCl, pH 7.7. After a 30 min incubation at 25° C. samples were filtered through glass fibre filter and filters were washed three times with 4 ml icecold wash buffer consisting of 10 mM TRIS-HCl, pH 7.7. Filters were then dried, impregnated with a scintillation cocktail and counted in a scintillation counter. Experimental data was analyzed using the commercial nonlinear least squares computer program LIGAND.
(§2) Each compound was tested in at least three independent experiments for its affinity on rat neocortical α2- or α1-adrenoceptors.

[2] = biological target: T1, α2-adrenoceptors; assay: as above; details: rat neocortical membranes, 1 nM 3H-RX821002, 30 min at 25° C., at least three independent experiments
T1 construct: pKi α2; other: rat neocortical membranes, 1 nM 3H-RX821002, 30 min at 25° C., at least three independent experiments
Protocol: as §1, §2

[3] = biological target: α1-adrenoceptors; assay: Binding assay, displacement of 0.1 nM 3H-prazosin in rat neocortical membranes; details: 30 min at 25° C., at least three independent experiments
Protocol: as §1, §2

| Compound | alpha2 vs alpha1 selectivity [1] | pKi α2 [2] | pKi α1 [3] |
| --- | --- | --- | --- |
| Cc1cccc2c1CCC2c1c[nH]cn1.Cl (stereo not drawn) [Compound 1, 4-(4-Methylindan-1-yl)-1H-imidazole hydrochloride] | 14 | 8.44 | 7.31 |
| Cl.Oc1ccc2c(c1)C(Cc1c[nH]cn1)CC2 (stereo not drawn) [Compound 2, 3-(1H-Imidazol-4-ylmethyl)-indan-5-ol hydrochloride] | 126 | 8.70 | 6.61 |
| CC(c1c[nH]cn1)C1CCc2ccccc21.Cl (stereo not drawn) [Compound 3, 4-[1-(Indan-1-yl)-ethyl]-1H-imidazole hydrochloride] | 142 | 8.35 | 6.21 |
| Cl.Oc1ccc2c(c1)C(Cc1c[nH]cn1)CCC2 (stereo not drawn) [Compound 4, 8-(1H-Imidazol-4-ylmethyl)-5,6,7,8-tetrahydronaphthalen-2-ol hydrochloride] | 3 | 7.39 | 6.85 |
| Cc1cccc([C@H](C)c2cnc[nH]2)c1C [Compound 5, dexmedetomidine, reference compound] | 90 | 8.42 | 6.48 |
